Measurements: patent US12448414B2, “Antimicrobial peptide (AMP) for controlling Pseudomonas syringae pv. actinidiae (PSA) and preparation method and use thereof” (Anhui Agricultural University, priority 2023, dated 2025)
Entries after “also recorded” stand apart in the source; their conditions may differ. Where two headings read alike, the source gives them in different places. No end group written: not given here.

Columns and labels:
PSA [1] = test: MIC determination by broth microdilution; format: cell-based, Pseudomonas syringae pv. actinidiae; conditions: PSA 10^5 CFU/mL, LB, 28° C., 24 h, OD600
Experimental: The MIC was determined by a broth microdilution method (Mishra et al., 2017, Individual and combined effects of engineered peptides and antibiotics on Pseudomonas aeruginosa biofilms). PSA cells in a logarithmic growth phase were diluted to 10^5 colony forming units (CFU)/mL with an LB liquid medium (including 10 g/L peptone, 5 g/L yeast extract powder, and 10 g/L NaCl), and added into a 96-well microplate that was preloaded with different concentrations of the AMP synthesized in Example 1 (1.56 μg/mL to 200 μg/mL) or agricultural streptomycin (AS) (125 μg/mL to 4,000 μg/mL). After incubation at 28° C. for 24 h, an absorbance at 600 nm (OD600) of each sample was measured using a Multiskan FC microplate reader (Thermo Fisher Scientific, Waltham, USA); while sterile water was used as a control.

PSA [2] = format: cell-based, Pseudomonas syringae pv. actinidiae
Experimental: The samples in the wells with a concentration of greater than 1 MIC during the MIC determination in step 1 were spread on an LB agar plate (including 10 g/L peptone, 5 g/L yeast extract powder, 10 g/L NaCl, and 15 g/L agar), and the colonies were counted after incubation at 28° C. for 48 h.

PSA [3] = format: cell-based, Pseudomonas syringae pv. actinidiae; conditions: 3 h
Experimental: The EC50 was determined according to a method of Gupta et al. (2015, Short, synthetic cationic peptides have antibacterial activity against Mycobacterium smegmatis by forming pores in membrane and synergizing with antibiotics). The PSA cells (10^5 CFU/mL) in a logarithmic growth phase were added to a 96-well microplate that was preloaded with different concentrations of the AMP synthesized in Example 1 (0.39 μg/mL to 12.5 μg/mL) or AS (62.5 μg/mL to 2,000 μg/mL), and then incubated at 28° C. for 3 h. A serially diluted mixture was spread on the LB agar plate, incubated for 48 h, and the colonies were counted. The EC50 was calculated by plotting percent killing as a function of the lg of AMP concentrations.

PSA cell membrane = test: Membrane permeabilization (OD260 of filtrates); format: cell-based, Pseudomonas syringae pv. actinidiae; conditions: 1 MIC, 120 min, relative to Triton X-100; increased from 2.61%
Experimental: Membrane permeabilization was determined according to a method of Dang et al. (2020, Antimicrobial peptides from the edible insect Musca domestica and their preservation effect on chilled pork). PSA cells (10^7 CFU/mL) in a logarithmic growth phase were incubated with 1 MIC of the AMP synthesized in Example 1 at 28° C. for 120 min. The resulting cultures were filtered through a 0.22 μm membrane and OD260 value of the filtrates were determined. 10 mM of a phosphate-buffered saline (PBS) and Triton X-100 were used as negative and positive controls, respectively. The membrane permeabilization was calculated according to the following formula: Permeabilization (%)=(OD260 AMP/OD260 Triton)×100%.

PSA cells [4] = test: Calcium ion leakage of PSA cells; format: cell-based, Pseudomonas syringae pv. actinidiae; conditions: after 120 min of treatment; increased from 8.70 μM
PSA cells [5] = test: Membrane depolarization with DiSC3(5); format: cell-based, Pseudomonas syringae pv. actinidiae; conditions: 1 MIC, 28° C., 30 min
Experimental: Membrane depolarization was measured using a membrane potential-sensitive cyano dye 3,3′-dipropylthiadicarbocyanine iodide (DiSC3(5)) according to a method of Juba et al. (2015, Helical cationic antimicrobial peptide length and its impact on membrane disruption). PSA cells (10^7 CFU/mL) were suspended in a PBS containing 50 μg/mL of the DiSC3(5) and added to a black 96-well microplate. The microplate was incubated in a SpectraMax i3 microplate reader (Molecular Devices, San Jose, USA), and monitored until fluorescence leveled off. 1 MIC of the AMP synthesized in Example 1 was added and incubated at 28° C. for 30 min; while the PBS was used as a control. The fluorescence intensity of each sample was measured at excitation/emission wavelengths of 622 nm/670 nm, respectively.

PSA cells [6] = test: SEM and TEM observation of PSA cells; format: cell-based, Pseudomonas syringae pv. actinidiae; conditions: 1 MIC, 2 h, 28° C.
Experimental: Scanning electron microscopy (SEM) and Transmission electron microscopy (TEM) were used to observe the morphological and intracellular changes of the PSA cells treated with the AMP synthesized in Example 1. PSA cells (10^7 CFU/mL) were incubated with the AMP (1 MIC) for 2 h at 28° C.; while sterile water was used as a control. For SEM, cell samples were prepared according to a protocol of Juba et al. (2015, Helical cationic antimicrobial peptide length and its impact on membrane disruption) and observed under a Hitachi SU8100 SEM (Tokyo, Japan). For TEM, cell samples were prepared according to a method of Nguyen et al. (2021, Comparison of two transmission electron microscopy methods to visualize drug-induced alterations of gram-negative bacterial morphology) and observed under a Hitachi HT-7700 TEM (Tokyo, Japan).

PSA genomic DNA = test: DNA gel retardation; format: binding, Pseudomonas syringae pv. actinidiae; conditions: 200 ng DNA, 15.63 ng to 1,000 ng AMP, 28° C., 30 min
Experimental: A PSA genomic DNA (200 ng) was incubated with different amounts of the AMP (15.63 ng to 1,000 ng) synthesized in Example 1 at 28° C. for 30 min. At the same time, sterile water was set as a control. After electrophoresis, DNA gel retardation was observed under UV illumination using a Bio-Rad Universal Hood II Gel Doc XR system (Hercules, USA).

[7] = system: DNA replication (dnaA and dnaB) and DNA repair (recA and recN) genes; test: RT-qPCR of DNA replication and repair genes; format: cell-based, Pseudomonas syringae pv. actinidiae; conditions: 1 MIC, 28° C., 2 h
Experimental: PSA cells (10^7 CFU/mL) were incubated with 1 MIC of the AMP synthesized in Example 1 at 28° C. for 2 h. At the same time, sterile water was set as a control. A total RNA was extracted, and cDNA was synthesized using PrimeScript RT Master Mix (Takara, Dalian, China). The expression of DNA replication (dnaA and dnaB) and DNA repair (recA and recN) genes were detected by reverse transcription-quantitative PCR (RT-qPCR). The RT-qPCR was conducted with a mixed system including 10 μL of Masser Mix (Tsinke, Beijing, China), 0.8 μL of each primer (0.5 μM), 0.4 μL (200 ng) of the cDNA, and 8 μL of water. The reaction was conducted by: at 50° C. for 2 min; initial denaturation at 95° C. for 2 min; and at 95° C. for 15 sec, at 55° C. for 30 sec, and at 72° C. for 30 sec, conducting 40 cycles. 16S rRNA was used as a reference gene. A relative expression level of genes was calculated by a 2-AACT method.

PSA cells [8] = test: ROS level (DCFH-DA fluorescence); format: cell-based, Pseudomonas syringae pv. actinidiae
Experimental: The reactive oxygen species (ROS) level of PSA treated with the AMP synthesized in Example 1 was evaluated using a ROS detection kit (LabLead, Beijing, China). PSA cells (10^7 CFU/mL) were incubated with different concentrations of the AMPs (0.5 MIC to 2 MICs) at 28° C. for 2 h. At the same time, sterile water was set as a control. The cells were resuspended in PBS and then incubated with 10 μM of 2′,7′-dichlorodihydrofluorescein diacetate (DCFH-DA) for 30 min at 28° C. Fluorescence intensity was measured at excitation/emission wavelengths of 485 nm/525 nm using a SpectraMax i3 microplate reader (Molecular Devices, San Jose, USA).

[9] = system: intracellular esterase of PSA; test: Intracellular esterase activity (FDA fluorescence); format: cell-based, Pseudomonas syringae pv. actinidiae; conditions: 1 MIC, at 120 min
Experimental: The intracellular esterase activity of PSA was measured with fluorescein diacetate (FDA). PSA cells (10^7 CFU/mL) were added to a black 96-well microplate preloaded with 1 MIC of the AMP synthesized in Example 1. The cells in each well were mixed with 10 mM of the FDA and incubated at 28° C. for 10 min. Fluorescence intensity was measured at excitation wavelengths of 480 nm/530 nm using the SpectraMax i3 microplate reader (Molecular Devices, San Jose, USA), respectively.

PSA [10] = test: Control effect and bacterial load on kiwifruit leaves inoculated with PSA; format: in vivo, Pseudomonas syringae pv. actinidiae on kiwifruit; conditions: 1 MIC; for disease control effect: kiwifruit leaves inoculated with PSA, lesion area vs control; for bacterial load in leaves: kiwifruit leaves, 96 h
Experimental: The method of Bai et al. (2022, Application of phage therapy against red-fleshed kiwifruit canker) was selected to evaluate a control effect of the AMP synthesized in Example 1 on kiwifruit leaves inoculated with PSA. The leaves were injured with a syringe needle and covered with a filter paper (ϕ=1 cm) containing 50 μL of PSA (10^8 CFU/mL). After 2 h, 1 MIC of AMP or AS was added; while the PBS was used as a control. The kiwifruit plants were cultured for 96 h at 25±1° C., 70±5% relative humidity (RH), and a photoperiod of 16 h: 8 h. The lesion area and the number of colonies were counted every 48 h, and the disease control effect (%) was calculated using the following formula: Control effect (%)=(1−Lesion areatreatment/Lesion areacontrol)×100%
Bacterial load in leaves was determined according to a colony count method of Barrett-Manako et al. (2021, Real-time PCR and droplet digital PCR are accurate and reliable methods to quantify Pseudomonas syringae pv. actinidiae biovar 3 in kiwifruit infected plantlets). Leaves were collected, washed with sterile water, and homogenized with PBS. A homogenate was inoculated into a King's B solid medium (supplemented with nitrofurantoin at 12.5 μg/mL and cephalexin at 40 μg/mL). After incubation at 28° C. for 48 h, the colonies were counted to calculate lg CFU/cm^2. Colonies were confirmed by PCR using specific primers for the 16S-23SrDNA-ITS sequence of PSA (Table 1), and sequenced.

[11] = system: defense genes (PR1 and PR-10); test: RT-qPCR of defense genes in kiwifruit leaves; format: in vivo; conditions: PSA-inoculated kiwifruit leaves, 48 h
Experimental: The expression of defense genes (PRI and PR-10) in kiwifruit leaves was detected by RT-qPCR. The leaves were collected 48 h after AMP inoculation with PSA, and a total RNA was extracted from three leaf discs for each replicate, and cDNA was synthesized. The RT-qPCR was conducted using the method in Example 4. Actin was used as a reference gene. […] A relative expression level of genes was calculated by a 2-AACT method.

PSA [12] = test: Drug resistance of PSA to the AMP (repeated subculture, MIC change); format: cell-based, Pseudomonas syringae pv. actinidiae; conditions: repeated treatment at 0.75, 1 and 1.25 MIC, 14 d
Experimental: Microbial resistance was determined according to a method of Steczko et al. (2009, Microbial inactivation properties of a new antimicrobial/antithrombotic catheter lock solution (citrate/methylene blue/parabens)). 10^5 CFU/mL of a PSA bacteria solution was treated with AMPs at final concentrations of 0.75 MIC, 1 MIC, and 1.25 MIC. After 24 h of incubation, the MIC was determined by microdilution assay. Subculture and MIC determination were conducted by the same method every day for a total of 14 d. The drug resistance of PSA was evaluated by observing changes of the MIC.

WWKLLRKL-NH2 [AMP, Trp-Trp-Lys-Leu-Leu-Arg-Lys-Leu-NH2]
MIC (PSA [1]): 3.13 mg/L
MBC (PSA [2]; 48 h): 6.25 µg/mL
EC50 (PSA [3]): 1.67 mg/L
permeabilization of the PSA cell membrane (PSA cell membrane): 11.44%
calcium ion leakage (PSA cells [4]): 60.87 µM
membrane depolarization (DiSC3(5) fluorescence) (PSA cells [5]): significantly induced an increase in DiSC3 (5) fluorescence
cell morphology and intracellular changes (SEM/TEM) (PSA cells [6]): notable alterations in cell morphology
binding with PSA genomic DNA (gel retardation) (PSA genomic DNA): bind to the genomic DNA of PSA and retard the migration of DNA in a concentration-dependent manner
reduction of dnaA expression level vs control [7]: 80.64%
reduction of dnaB expression level vs control [7]: 57.51%
reduction of recA expression level vs control [7]: 35.28%
reduction of recN expression level vs control [7]: 39.23%
ROS fluorescence intensity, dose dependence (PSA cells [8]; 0.5 MIC to 2 MICs): increased in a dose-dependent manner
ROS fluorescence intensity relative to control (PSA cells [8]; 2 MIC, 28° C., 2 h): 4.22 times that of the control
esterase (FDA) fluorescence intensity relative to control [9]: 0.34 times that of the control
disease control effect (PSA [10]): 70.53%
bacterial load in leaves (PSA [10]): 2.95 lg CFU/cm^2
expression level of PR 1 relative to control [11]: 1.38 times that of the control group
expression level of PR-10 relative to control [11]: 1.74 times that of the control
drug resistance of PSA (change of MIC) (PSA [12]): no drug resistance of PSA to AMP is observed; also recorded: no change was found in the MIC

agricultural streptomycin [AS, reference compound]
MIC (PSA [1]): 500 mg/L
MBC (PSA [2]; LB agar plate, 28° C., 48 h colony count): 1,000 μg/mL
disease control effect (PSA [10]): 55.80%
bacterial load in leaves (PSA [10]): 4.48 lg CFU/cm^2
